The source made the active and inactive calls. The calls are words filed in the database; no cut-off is given here.
Experiments:
KB = assay: Cytotoxicity against human KB cells at 10 ug/mL after 24 hrs by MTT assay; format: functional, cell-based
LoVo = assay: Cytotoxicity against human LoVo cells at 10 ug/mL after 24 hrs by MTT assay; format: functional, cell-based
MOLT-4 = assay: Cytotoxicity against human MOLT4 cells after 24 hrs by MTT assay; format: functional, cell-based; conditions: MOLT-4, 24 h
[1] = Toxicity in brine shrimp at 100 ppm; format: organism-based; conditions: artemia, in vivo; read-out: Activity
[2] = Toxicity in brine shrimp at 10 ppm; format: organism-based; conditions: artemia, in vivo; read-out: Activity
MCF7 = assay: Cytotoxicity against human MCF7 cells after 24 hrs by MTT assay; format: functional, cell-based; conditions: MCF7, 24 h

| Structure (SMILES) | Activity (KB) | Activity (LoVo) | IC50 (MOLT-4) [nM] | mortality at 100 ppm [1] [%] | mortality at 10 ppm [2] [%] | IC50 (MCF7) [µM] |
| --- | --- | --- | --- | --- | --- | --- |
| C#CCCC[C@H]1OC(=O)[C@H]([C@@H](C)CC)NC(=O)[C@@H]2CCCN2C(=O)[C@H](Cc2ccccc2)OC(=O)[C@H](C(C)C)N(C)C(=O)[C@H](C(C)C)NC(=O)[C@H]1C | inactive | inactive |  |  |  |  |
| C#CCCC[C@@H]1OC(=O)[C@H](C(C)C)N(C)C(=O)[C@@H]2CCCN2C(=O)[C@H](Cc2ccccc2)OC(=O)[C@H]([C@@H](C)CC)N(C)C(=O)[C@H](C(C)C)NC(=O)C1C (stereo partly drawn) [HANTUPEPTIN A] | inactive | inactive | 32 | 100 | 100 | 4 |

Reference: ChEMBL document CHEMBL1151483, “Hantupeptin A, a cytotoxic cyclic depsipeptide from a Singapore collection of Lyngbya majuscula” (J Nat Prod, 2009)
